Experimental findings from patent US20170334899A1, “AMINO-SUBSTITUTED ISOTHIAZOLES” (Bayer Pharma Aktiengesellschaft, priority 2014, published 2017) are described below.

Some results are limits rather than exact numbers.

For the experiment, the target named is T1, human kinase Mps-1 (Homo sapiens, UniProt P33981).
T1 construct: N-terminally GST-tagged human full length recombinant Mps-1 kinase; GST (N); purchased Invitrogen, Karslruhe, Germany PV4071
T1 sequence (P33981 1-857): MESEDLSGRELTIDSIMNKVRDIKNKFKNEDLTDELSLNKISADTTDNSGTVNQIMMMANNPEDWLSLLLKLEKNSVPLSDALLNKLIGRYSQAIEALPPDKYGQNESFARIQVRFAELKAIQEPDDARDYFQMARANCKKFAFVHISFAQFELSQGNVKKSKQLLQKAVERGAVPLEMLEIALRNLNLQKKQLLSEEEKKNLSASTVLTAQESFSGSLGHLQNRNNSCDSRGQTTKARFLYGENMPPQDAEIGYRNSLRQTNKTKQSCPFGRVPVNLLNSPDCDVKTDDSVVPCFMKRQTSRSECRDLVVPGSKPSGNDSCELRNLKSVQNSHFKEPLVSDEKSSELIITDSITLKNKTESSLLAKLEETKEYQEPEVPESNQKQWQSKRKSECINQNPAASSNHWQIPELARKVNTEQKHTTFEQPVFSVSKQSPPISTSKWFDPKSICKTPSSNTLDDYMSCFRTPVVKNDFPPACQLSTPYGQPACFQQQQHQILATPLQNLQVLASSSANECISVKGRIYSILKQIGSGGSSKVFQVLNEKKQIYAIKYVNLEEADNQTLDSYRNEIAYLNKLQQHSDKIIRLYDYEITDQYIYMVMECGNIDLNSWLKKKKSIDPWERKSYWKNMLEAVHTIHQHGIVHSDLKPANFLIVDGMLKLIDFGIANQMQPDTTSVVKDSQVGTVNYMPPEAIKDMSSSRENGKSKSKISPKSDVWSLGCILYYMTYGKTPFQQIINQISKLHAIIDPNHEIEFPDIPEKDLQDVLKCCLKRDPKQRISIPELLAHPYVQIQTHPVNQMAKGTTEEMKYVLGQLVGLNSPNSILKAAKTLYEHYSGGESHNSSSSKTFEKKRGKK
As to the kind of experiment: Mps-1 kinase assay (TR-FRET). Format: biochemical. The following applies: Mps-1 TR-FRET kinase assay; avg; read-out: Mps1 avg (IC50 [mol/l]). The procedure:
The human kinase Mps-1 phosphorylates a biotinylated substrate peptide. Detection of the phosphorylated product is achieved by time-resolved fluorescence resonance energy transfer (TR-FRET) from Europium-labelled anti-phospho-Serine/Threonine antibody as donor to streptavidin labelled with cross-linked allophycocyanin (SA-XLent) as acceptor. Compounds are tested for their inhibition of the kinase activity.
N-terminally GST-tagged human full length recombinant Mps-1 kinase (purchased from Invitrogen, Karslruhe, Germany, cat. no PV4071) was used. As substrate for the kinase reaction a biotinylated peptide of the amino-acid sequence biotin-Ahx-PWDPDDADITEILG (C-terminus in amide form, purchased from Biosyntan GmbH, Berlin) was used.
For the assay 50 nl of a 100-fold concentrated solution of the test compound in DMSO was pipetted into a black low volume 384we11 microtiter plate (Greiner Bio-One, Frickenhausen, Germany), 2 μl of a solution of Mps-1 in assay buffer [0.1 mM sodium-ortho-vanadate, 10 mM MgCl2,2 mM DTT, 25 mM Hepes pH 7.7, 0.05% BSA (w/v), 0.001% Pluronic F-127] were added and the mixture was incubated for 15 min at 22° C. to allow pre-binding of the test compounds to Mps-1 before the start of the kinase reaction. Then the kinase reaction was started by the addition of 3 μl of a solution of 16.7 μM adenosine-tri-phosphate (ATP, 16.7 μM=>final conc. in the 5 μl assay volume is 10 μM) and peptide substrate (1.67 μM=>final conc. in the 5 μl assay volume is 1 μM) in assay buffer and the resulting mixture was incubated for a reaction time of 60 min at 22° C. The concentration of Mps-1 in the assay was adjusted to the activity of the enzyme lot and was chosen appropriate to have the assay in the linear range, typical enzyme concentrations were in the range of about 0.5 nM (final conc. in the 5 μl assay volume). The reaction was stopped by the addition of 5 μl of a solution of TR-FRET detection reagents (100 mM Hepes pH 7.4, 0.1% BSA, 40 mM EDTA, 140 nM Streptavidin-XLent [#61GSTXLB, Fa. Cis Biointernational, Marcoule, France], 1.5 nM anti-phospho(Ser/Thr)-Europium-antibody [#AD0180, PerkinElmer LAS, Rodgau-Jugesheinn, Germany]. Instead of the 1.5 nM anti-phospho(Ser/Thr)-Europium-antibody a mixture of 2 nM unlabeled anti-phospho ser/thr-pro antibody MPM-2 [Millipore cat. #05-368] and 1 nM LANCE EU-W1024 labeled anti-mouse IgG antibody [Perkin-Elmer, product no. AD0077] can be used).
The resulting mixture was incubated 1 h at 22° C. to allow the binding of the phosphorylated peptide to the anti-phospho(Ser/Thr)-Europium-antibody. Subsequently the amount of phosphorylated substrate was evaluated by measurement of the resonance energy transfer from the Europium-labelled anti-phospho(Ser/Thr) antibody to the Streptavidin-XLent. Therefore, the fluorescence emissions at 620 nm and 665 nm after excitation at 350 nm was measured in a Viewlux TR-FRET reader (PerkinElmer LAS, Rodgau-Jugesheinn, Germany). The “blank-corrected normalized ratio” (a Viewlux specific readout, similar to the traditional ratio of the emissions at 665 nm and at 622 nm, in which blank and Eu-donor crosstalk are subtracted from the 665 nm signal before the ratio is calculated) was taken as the measure for the amount of phosphorylated substrate. The data were normalised (enzyme reaction without inhibitor=0% inhibition, all other assay components but no enzyme=100% inhibition).
(Time-resolved FRET reads energy transfer from a long-lived donor to a nearby acceptor.)
For the compound `Cc1nsc(Nc2cnc(C(F)(F)F)cn2)c1C(=O)Nc1ccc(OC2CCNCC2)nc1` [Example 6, 3-Methyl-N-[6-(piperidin-4-yloxy)pyridin-3-yl]-5-{[5-(trifluoromethyl)pyrazin-2-yl]amino}-1,2-thiazole-4-carboxamide], the IC50 was at least 20 µM.

For `Cc1nsc(Nc2cnc(C(F)(F)F)cn2)c1C(=O)Nc1ccc(OC2CCN(CCF)CC2)nc1` [Example 7, N-(6-{[1-(2-Fluoroethyl)piperidin-4-yl]oxy}pyridin-3-yl)-3-methyl-5-{[5-(trifluoromethyl)pyrazin-2-yl]amino}-1,2-thiazole-4-carboxamide], the IC50 was at least 20 µM.

In the case of `Cc1nsc(Nc2cnc(C(F)(F)F)cn2)c1C(=O)Nc1ccc(OC2CCN(CC(F)F)CC2)nc1` [Example 8, N-(6-{[1-(2,2-Difluoroethyl)piperidin-4-yl]oxy}pyridin-3-yl)-3-methyl-5-{[5-(trifluoromethyl)pyrazin-2-yl]amino}-1,2-thiazole-4-carboxamide], the IC50 is at least 20 µM.

For `Cc1nsc(Nc2cnc(C(F)(F)F)cn2)c1C(=O)Nc1ccc(OC2CCN(CC(F)(F)F)CC2)nc1` [Example 9, -Methyl-N-(6-{[1-(2,2,2-trifluoroethyl)piperidin-4-yl]oxy}pyridin-3-yl)-5-{[5-(trifluoromethyl)pyrazin-2-yl]amino}-1,2-thiazole-4-carboxamide], the IC50 is at least 20 µM.

`Cc1nsc(Nc2cnc(C(F)(F)F)cn2)c1C(=O)Nc1ccc(OC2CCN(CCC(F)(F)F)CC2)nc1` [Example 10, 3-Methyl-5-{[5-(trifluoromethyl)pyrazin-2-yl]amino}-N-(6-{[1-(3,3,3-trifluoropropyl)-piperidin-4-yl]oxy}pyridin-3-yl)-1,2-thiazole-4-carboxamide]: the IC50 is at least 20 µM.

As to `CC(=O)N1CCC(Oc2ccc(NC(=O)c3c(C)nsc3Nc3cnc(C(F)(F)F)cn3)cn2)CC1` [Example 11, N-{6-[(1-Acetylpiperidin-4-yl)oxy]pyridin-3-yl}-3-methyl-5-{[5-(trifluoromethyl)-pyrazin-2-yl]amino}-1,2-thiazole-4-carboxamide], the IC50 was at least 20 µM.

In the case of `Cc1nsc(Nc2cncc(C(F)(F)F)n2)c1C(=O)Nc1ccc(OC2CCN(C(=O)OC(C)(C)C)CC2)nc1` [Example 12, tert-Butyl 4-[(5-{[(3-methyl-5-{[6-(trifluoromethyl)pyrazin-2-yl]amino}-1,2-thiazol-4-yl)carbonyl]amino}pyridin-2-yl)oxy]piperidine-1-carboxylate], the IC50 is at least 20 µM.

As for `Cc1nsc(Nc2cnc(C(F)(F)F)cn2)c1C(=O)Nc1ccc(C(=O)OC(C)(C)C)cc1` [Example 96, tert-Butyl 4-{[(3-methyl-5-{[5-(trifluoromethyl)pyrazin-2-yl]amino}-1,2-thiazol-4-yl)carbonyl]amino}benzoate], the IC50 was at least 20 µM.

Take `Cc1nsc(Nc2cnc(C(F)(F)F)cn2)c1C(=O)Nc1ccc(C(=O)O)cc1` [Example 97, 4-{[(3-Methyl-5-{[5-(trifluoromethyl)pyrazin-2-yl]amino}-1,2-thiazol-4-yl)carbony]-amino}benzoic acid]: the IC50 was at least 20 µM.

For the compound `Cc1nsc(Nc2ccc(C#N)cn2)c1C(=O)Nc1ccc(C(=O)OC(C)(C)C)cc1` [Example 98, tert-Butyl 4-[({5-[(5-cyanopyridin-2-yl)amino]-3-methyl-1,2-thiazol-4-yl}carbonyl)-amino]benzoate], the IC50 was at least 20 µM.

Turning to `Cc1nsc(Nc2cnc3ccccc3n2)c1C(=O)Nc1cccc(C(=O)NCC(=O)O)c1` [Example 99, N-[3-({[3-Methyl-5-(quinoxalin-2-ylamino)-1,2-thiazol-4-yl]carbonyl}amino)benzoy]-glycine], the IC50 worked out at 9 µM.

`COC(=O)CNC(=O)c1cccc(NC(=O)c2c(C)nsc2Nc2cnc3ccccc3n2)c1` [Example 100, Methyl N-[3-({[3-methyl-5-(quinoxalin-2-ylamino)-1,2-thiazol-4-yl]carbonyl}amino)-benzoyl]glycinate]: the IC50 came out at 12 µM.

Take `Cc1nsc(Nc2cnc3ccccc3n2)c1C(=O)Nc1cccc(C(=O)N2CCNCC2)c1` [Example 101, 3-Methyl-N-[3-(piperazin-1-ylcarbonyl)phenyl]-5-(quinoxalin-2-ylamino)-1,2-thiazole-4-carboxamide]: the IC50 was found to be 18 µM.

`Cc1nsc(Nc2cnc3ccccc3n2)c1C(=O)Nc1cccc(C(=O)N2CCN(C)CC2)c1` [Example 102, 3-Methyl-N-{3-[(4-methylpiperazin-1-yl)carbonyl]phenyl}-5-(quinoxalin-2-ylamino)-1,2-thiazole-4-carboxamide]: the IC50 is at least 20 µM.

`Cc1nsc(Nc2cnc3ccccc3n2)c1C(=O)Nc1cccc(C(=O)N[C@@H](CCC(N)=O)C(=O)O)c1` [Example 103, N^2-[3-({[3-Methyl-5-(quinoxalin-2-ylamino)-1,2-thiazol-4-yl]carbonyl}amino)-benzoyl]glutamine]: the IC50 was determined as 13 µM.

For the compound `Cc1nsc(Nc2cnc3ccccc3n2)c1C(=O)Nc1cccc(C(=O)N[C@H](C(=O)O)[C@@H](C)OC(C)(C)C)c1` [Example 104, O-tert-Butyl-N-[3-({[3-methyl-5-(quinoxalin-2-ylamino)-1,2-thiazol-4-yl]-carbonyl}amino)benzoyl]threonine], the IC50 was 16 µM.

Take `Cc1nsc(Nc2cnc3ccccc3n2)c1C(=O)Nc1cccc(C(=O)N[C@H](C(=O)O)[C@@H](C)O)c1` [Example 105, N-[3-({[3-methyl-5-(quinoxalin-2-ylamino)-1,2-thiazol-4-yl]carbonyl}amino)-benzoyl]threonine]: the IC50 worked out at 6.5 µM.

As to `Cc1noc(-c2cccc(NC(=O)c3c(C)nsc3Nc3cnc4ccccc4n3)c2)n1` [Example 106, 3-Methyl-N-[3-(3-methyl-1,2,4-oxadiazol-5-yl)phenyl]-5-(quinoxalin-2-ylamino)-1,2-thiazole-4-carboxamide], the IC50 is at least 20 µM.

On to `Cc1nsc(Nc2cnc3ccccc3n2)c1C(=O)Nc1cccc(-c2nnc(C(C)(C)C)o2)c1` [Example 107, N-[3-(5-tert-Butyl-1,3,4-oxadiazol-2-yl)phenyl]-3-methyl-5-(quinoxalin-2-ylamino)-1,2-thiazole-4-carboxamide], for which the IC50 was at least 20 µM.

In the case of `Cc1nsc(Nc2cnc3ccccc3n2)c1C(=O)Nc1cccc(-c2nc(C(C)(C)C)no2)c1` [Example 108, N-[3-(3-tert-Butyl-1,2,4-oxadiazol-5-yl)phenyl]-3-methyl-5-(quinoxalin-2-ylamino)-1,2-thiazole-4-carboxamide], the IC50 is at least 20 µM.
